Consider one substance from US11203633B2, “Polynucleotides encoding antibodies or antigen binding fragments thereof that bind pseudomonas perv” (priority 2011, dated 2021).

The subject of assay [1] is wild type PAO1, PAO1ΔpslA and PAO1ΔpslA complemented with pslA. The assay can be described thus: OPK assay with PAO1 pslA mutant strains. The conditions noted are these: FIG. 3F-G. The class given is cell-based, Pseudomonas aeruginosa. Here is the method:
This example describes the evaluation of prioritized human IgG1 antibodies to promote OPK of P. aeruginosa. […] OPK assays were performed as described in (DiGiandomenico, A., et al., Infect Immun 72, 7012-7021 (2004)), with modifications. Briefly, assays were performed in 96-well plates using 0.025 ml of each OPK component; P. aeruginosa strains; diluted baby rabbit serum; differentiated HL-60 cells; and monoclonal antibody. In some OPK assays, luminescent P. aeruginosa strains, which were constructed as described (Choi, K. H., et al., Nat Methods 2, 443-448 (2005)), were used. Luminescent OPK assays were performed as described above but with determination of relative luciferase units (RLUs) using a Perkin Elmer ENVISION Multilabel plate reader (Perkin Elmer).
This example describes identification of the target of anti-P. aeruginosa antibodies derived from phenotypic screening. Target analysis was performed to test whether the serotype independent antibodies targeted protein or carbohydrate antigens. […] Isogenic mutants were constructed in genes responsible for 0-antigen, alginate, and LPS core biosynthesis; wbpL (O-antigen-deficient); wbpL/algD (O-antigen and alginate deficient); rmlC (O-antigen-deficient and truncated outer core); and galU (O-antigen-deficient and truncated inner core). […]

Assay [2] has as its system Psl exopolysaccharide (P. aeruginosa PAO1 and isogenic mutants). The assay can be described thus: Indirect ELISA / FACS binding to PAO1 and isogenic mutants. Details: species or system Pseudomonas aeruginosa. The following applies: for binding (indirect ELISA): FIG. 3A; for binding (ELISA): FIG. 3E. An excerpt: In addition, duplication of VH CDR3 loop sequences in the libraries (a measure of clonal enrichment during selection), was also found to be higher in the patient library, reaching 88-92%, compared to 15-25% in the naïve library at round 3 (FIG. 1D). Individual scFv phage from affinity selections were next screened by ELISA for reactivity to P. aeruginosa heterologous serotype strains (FIG. 1E). ELISA plates (Nunc; MAXISORP™) were coated with P. aeruginosa strains from overnight cultures as described (DiGiandomenico, A., et al., Infect Immun 72, 7012-7021 (2004)). Diluted antibodies were added to blocked plates for 1 hour, washed, and treated with HRP-conjugated anti-human secondary antibodies for 1 hour followed by development and analysis as described (Ulbrandt, N. D., et al., J Virol 80, 7799-7806 (2006)). The dominant species of phage obtained from whole cell selections with both libraries yielded serotype specific reactivity (data not shown).
For IgG expression, the VH and VL chains of selected antibodies were cloned into human IgG1 expression vectors, co-expressed in HEK293 cells, and purified by protein A affinity chromatography as described (Persic, L., et al., Gene 187, 9-18 (1997)). Human IgG1 antibodies made with the variable regions from these selected serotype independent phage were confirmed for P. aeruginosa specificity and prioritized for subsequent analysis by whole cell binding to dominant clinically relevant serotypes by FACS analysis (FIG. 1F), since this method is more stringent than ELISA. For the flow cytometry based binding assays mid-log phase P. aeruginosa strains were concentrated in PBS to an OD650 of 2.0. After incubation of antibody (10 μg/mL) and bacteria (˜1×10^7 cells) for 1 hr at 4° C. with shaking, washed cells were incubated with an ALEXA FLUOR 647® goat anti-human IgG antibody (Invitrogen, Carlsbad, Calif.) for 0.5 hr at 4° C. Washed cells were stained with BACLIGHT™ green bacterial stain as recommended (Invitrogen, Carlsbad, Calif.). Samples were run on a LSR II flow cytometer (BD Biosciences) and analyzed using BD FacsDiva (v. 6.1.3) and FlowJo (v. 9.2; TreeStar).
This example describes identification of the target of anti-P. aeruginosa antibodies derived from phenotypic screening. Target analysis was performed to test whether the serotype independent antibodies targeted protein or carbohydrate antigens. […] Isogenic mutants were constructed in genes responsible for 0-antigen, alginate, and LPS core biosynthesis; wbpL (O-antigen-deficient); wbpL/algD (O-antigen and alginate deficient); rmlC (O-antigen-deficient and truncated outer core); and galU (O-antigen-deficient and truncated inner core). P. aeruginosa mutants were constructed based on the allele replacement strategy described by Schweizer (Schweizer, H. P., Mol Microbiol 6, 1195-1204 (1992); Schweizer, H. D., Biotechniques 15, 831-834 (1993)). Vectors were mobilized from E. coli strain 517.1 into P. aeruginosa strain PAO1; recombinants were isolated as described (Hoang, T. T., et al., Gene 212, 77-86 (1998)). Gene deletion was confirmed by PCR. P. aeruginosa mutants were complemented with pUCP30T-based constructs harboring wild type genes. […] The rmlC and galU genes were recently shown to be required for biosynthesis of the Psl exopolysaccharide, a repeating pentasaccharide polymer consisting of D-mannose, L-rhamnose, and D-glucose. Cam-003 binding to an isogenic pslA knockout PAO1ΔpslA, was tested, as pslA is required for Psl biosynthesis (Byrd, M. S., et al., Mol Microbiol 73, 622-638 (2009)). Binding of Cam-003 to PAO1ΔpslA was abolished when tested by ELISA (FIG. 3B) and FACS (FIG. 3C), while the LPS molecule in this mutant was unaffected (FIG. 3D). Binding of Cam-003 was restored in a PAO1ΔwbpL/algD/pslA triple mutant complemented with pslA (FIG. 3E) as was the ability of Cam-003 to mediate opsonic killing to complemented PAO1ΔpslA in contrast to the mutant (FIGS. 3F and 3G). […]
A general note: ELISA stands for enzyme-linked immunosorbent assay.

For “Cam-003: anti-Psl human IgG1 monoclonal antibody; VH SEQ ID NO:1, VL SEQ ID NO:2”, the “opsonophagocytic killing of Psl-producing vs Psl-deficient strains” value in assay [1] was “only mediates killing of strains capable of producing Psl”. Further, the “reactivity to LPS purified from PAO1” value in assay [2] is “not observed”. In addition, the “binding (indirect ELISA)” value is reported as “abolished” in assay [2] (PAO1 rmlC and galU mutants); “unaffected” in assay [2] (PAO1 wbpL or wbpL/algD double mutant). Besides, the “binding (ELISA and FACS)” value in assay [2] (PAO1ΔpslA, FIG. 3B-C) is “abolished”. Moreover, the “binding (ELISA)” value was “restored” in assay [2] (PAO1ΔwbpL/algD/pslA triple mutant complemented with pslA) and “unaffected” in assay [2] (Pel exopolysaccharide mutant).
